{
  "source": "patent US11607422B2",
  "about": "“Uttroside B and derivatives thereof as therapeutics for hepatocellular carcinoma” (Rajiv Gandhi Centre for Biotechnology, an Autonomous …, priority 2016, dated 2023)",
  "key": {"[1]": {"tested_on": "autophagy related proteins in Hep3B cells", "assay": "Western blot of autophagy related proteins in Hep3B cells", "type": "cell-based", "conditions": "time dependent", "procedure": "Western blot analysis. Approximately 0.5×10^6 cells were grown on 60 mm culture plates and exposed to drugs as indicated for the desired time. The cells were then scraped out, washed in ice cold 1× PBS and pelleted down at 13000 rpm for 2 min. The pelleted cells were suspended in 150 μL of ice-cold whole cell lysis buffer[(20 mMTris of pH 7.4, 250 mM NaCl, 2 mM EDTA, 0.1% Triton, 1 mM DTT (1,4-dithiothreitol), 0.5 mM PMSF, 4 mM sodium orthovanadate, aprotinin (5 mg m/L) and leupeptin (5 mg m/L)] and kept in ice for 30 min, with intermittent vortexing every 5 min. After incubation, the lysate was centrifuged at 13000 rpm for 10 min at 4° C. and the supernatant was collected. The total protein content in the lysate was estimated by Bradford's method, and was then denatured by boiling with 5× loading dye before separating the proteins by SDSpolyacrylamidegel electrophoresis (SDS-PAGE). […]"}, "Akt in HepG2 cells": {"tested_on": "Akt in HepG2 cells", "assay": "Western blot of Akt phosphorylation", "type": "cell-based, human", "conditions": "HepG2, no basal activation of Akt", "procedure": "FIGS. 4A-4E are images showing Uttroside B inhibits MAPK and mTOR signaling, some of the crucial survival signals in liver cancer. […] HepG2 cells were treated with Uttroside B for different time intervals (0-240 min) and the whole cell lysate was resolved on a 10% gel and immunoblotted against phospho-ERK1/2 and phospho-Akt antibodies. Taxol was used as a positive control. […] HepG2 cells were treated with Uttroside B at different time intervals and the whole cell lysate was resolved on an 8% gel and immunoblotted against phospho-mTOR (2448) and phospho-mTOR (2481) antibodies.\nWestern blot analysis. Approximately 0.5×10^6 cells were grown on 60 mm culture plates and exposed to drugs as indicated for the desired time. The cells were then scraped out, washed in ice cold 1× PBS and pelleted down at 13000 rpm for 2 min. […]"}, "Swiss albino mice": {"tested_on": "Swiss albino mice", "assay": "Acute toxicity study", "type": "in vivo", "procedure": "Toxicological evaluation:a. Animals: Six to eight-week-old female Swiss albino mice (18-22 g) were obtained from the Animal Research Facility of Rajiv Gandhi Centre for\nBiotechnology and the study was performed under protocols approved by Institutional Animal Ethical Committee of Rajiv Gandhi Centre for Biotechnology (IAEC No: 151 (a)/RUBY/2012) b. Acute toxicity study: Swiss albino mice were randomly divided into 3 groups of 6 animals each and were allowed to acclimatize for a week. Group I was taken as the control, which received only vehicle, while Group II and III received a single dose of Uttroside B dissolved in PBS (10 mg/kg and 50 mg/Kg body weight respectively). The mice were observed continuously for 1 h, for any gross behavioral changes and death, and then intermittently for the next 6 h and 24 h. The animals were observed frequently for the next 7 days from the day of treatment after which, the animals were euthanized in a CO2 chamber. The blood serum was collected for analyzing biochemical parameters of liver function, the abnormal values of which are indicative of toxicity. The liver was fixed in 10% buffered formalin and the thin cryostat sections (LEICA CM 1850UV Cryostat) were stained with haematoxylin and eosin for histopathological evaluation.^17"}, "HeLa cells": {"tested_on": "HeLa cells", "conditions": "literature ref 12; read-out: IC50, cytotoxicity against HeLa (cervical cancer cells); cited from earlier work"}, "[2]": {"tested_on": "caspases 8, 9 & 7 and PARP in HepG2 cells", "assay": "Western blot of caspase activation and PARP cleavage in HepG2 cells", "type": "cell-based, human", "procedure": "FIGS. 3A-3F show Uttroside B induces caspase-dependent apoptosis leading to PARP cleavage in HepG2 cells while being independent of cell cycle. FIGS. 3A-3E are images of Western blots showing caspase activation in HepG2 cells. Whole-cell extracts were prepared after treating HepG2 cells with indicated concentrations of Uttroside B for 48 h, the whole cell lysate was resolved on a 15% gel and subjected to western blotting using antibodies against the caspases 8, 9 & 7 detected by ECL. HepG2 cells were treated with Uttroside B for 48 h at different concentrations and the whole cell lysate was resolved on a 10% gel, immunoblotted against anti-PARP and detected by ECL. […] HepG2 cells were treated with Uttroside B for 48 h, stained with propidium iodide and the cell cycle analysis was done using fluorescence activated cell sorter. Curcumin 25 μM (24 h) is used as positive control.\nWestern blot analysis. Approximately 0.5×10^6 cells were grown on 60 mm culture plates and exposed to drugs as indicated for the desired time. The cells were then scraped out, washed in ice cold 1× PBS and pelleted down at 13000 rpm for 2 min. The pelleted cells were suspended in 150 μL of ice-cold whole cell lysis buffer[(20 mMTris of pH 7.4, 250 mM NaCl, 2 mM EDTA, 0.1% Triton, 1 mM DTT (1,4-dithiothreitol), 0.5 mM PMSF, 4 mM sodium orthovanadate, aprotinin (5 mg m/L) and leupeptin (5 mg m/L)] and kept in ice for 30 min, with intermittent vortexing every 5 min. After incubation, the lysate was centrifuged at 13000 rpm for 10 min at 4° C. and the supernatant was collected. The total protein content in the lysate was estimated by Bradford's method, and was then denatured by boiling with 5× loading dye before separating the proteins by SDSpolyacrylamidegel electrophoresis (SDS-PAGE). Following electrophoresis, the polyacrylamide gel and a PVDF membrane were equilibrated with Towbins buffer (1 L, 25 mM Tris, 192 mM glycine, 20% (v/v) methanol (pH 8.3) for 15-30 min and the separated proteins were electro-transferred to PVDF membrane (Hybond-P, GE Healthcare Life science) using Bio-Rad Mini PROTEAN III wet blot apparatus at 100 V for 2 h at cold conditions. After the transfer, the membrane was rinsed with TBS-T (20 mM Tris pH 7.5, 150 mM NaCl, 0.1% Tween 20) buffer and stained with Ponceau-S to ensure uniform transfer. After washing off the Ponceau stain with TBST, the membrane was exposed to 5% fat free milk in TBST buffer for 1 h at room temperature to block the nonspecific binding of antibodies, followed by overnight incubation with the primary antibody [1:1000 dilution] in 3% BSA in TBST buffer at 4° C. […]"}, "[3]": {"conditions": "10 mg/kg and 50 mg/kg single dose"}, "[4]": {"conditions": "HepG2, 48 h, concentration dependent"}},
  "data": [
    {"compound": "C[C@H](CC[C@@]1(O)O[C@H]2C[C@H]3[C@@H]4CC[C@H]5C[C@@H](O[C@@H]6O[C@H](CO)[C@H](O[C@@H]7O[C@H](CO)[C@@H](O)[C@H](O[C@@H]8OC[C@@H](O)[C@H](O)[C@H]8O)[C@H]7O[C@@H]7O[C@H](CO)[C@@H](O)[C@H](O)[C@H]7O)[C@H](O)[C@H]6O)CC[C@]5(C)[C@H]4CC[C@]3(C)[C@H]2[C@@H]1C)CO[C@@H]1O[C@H](CO)[C@@H](O)[C@H](O)[C@H]1O", "note": "[Uttroside B]", "values": [
      {"measurement": "expression of autophagy related proteins, Hep3B", "setting": "[1]", "result": "induced Atg5, Atg7 and LC3 in a time dependent manner"},
      {"measurement": "activation of Akt", "setting": "Akt in HepG2 cells", "result": "no significant role in activating Akt pathway"},
      {"measurement": "histopathological analysis of liver tissue, acute", "setting": "Swiss albino mice; 10 mg/kg and 50 mg/kg", "result": "did not manifest any morphological change characteristic of toxicity"},
      {"measurement": "behavior", "setting": "Swiss albino mice; [3]", "result": "did not exhibit any abnormal behavior"},
      {"measurement": "serum levels of AST, ALT and ALP", "setting": "Swiss albino mice; [3]", "result": "did not show any deviation in the serum levels"},
      {"measurement": "liver tissue changes at five times the treatment dose", "setting": "Swiss albino mice; 50 mg/kg, acute, reversible changes", "result": "micro vesicular fatty changes"},
      {"measurement": "gross adverse response (body weight, fur, behavior, food intake)", "setting": "Swiss albino mice; up to 5 times dose", "result": "failed to exhibit any signs of cumulative adverse response"},
      {"measurement": "IC50", "setting": "HeLa cells", "result": 15.4, "unit": "µM"},
      {"measurement": "cleavage of PARP", "setting": "[2]; HepG2, 48 h", "result": "strong cleavage of the mother band to its daughter bands"},
      {"measurement": "cleavage of procaspase 7", "setting": "[2]; [4]", "result": "procaspase 7 into its active fragment (p-20) were also enhanced"},
      {"measurement": "cleavage of procaspase 8", "setting": "[2]; [4]", "result": "increase in the cleavage of procaspase 8 to its active fragments"},
      {"measurement": "cleavage of procaspase 9", "setting": "[2]; HepG2, Western blot", "result": "time-dependent and concentration-dependent increase in the cleavage of procaspase 9"}
    ]}
  ]
}
